These results are taken from ChEMBL document CHEMBL4622942, “Design, synthesis and biological evaluation of potent EGFR kinase inhibitors against 19D/T790M/C797S mutation” (Bioorg Med Chem Lett, 2020).

Experiment [1] concerns the target Epidermal growth factor receptor (Homo sapiens, UniProt P00533). Briefly: Inhibition of wild type EGFR (unknown origin) by ELISA.
The target of experiment [2] is Epidermal growth factor receptor (Homo sapiens, UniProt P00533, C797S/L858R/T790M). Briefly: Inhibition of EGFR L858R/T790M/C797S mutant (unknown origin) by ELISA. Background: ELISA stands for enzyme-linked immunosorbent assay.
Experiment [3] deals with Epidermal growth factor receptor (Homo sapiens, UniProt P00533, L858R/T790M). Briefly: Inhibition of EGFR L858R/T790M mutant (unknown origin) by ELISA.
The target in experiment [4] is Epidermal growth factor receptor (Homo sapiens, UniProt P00533, C797S/EX19DEL/T790M). Briefly: Inhibition of EGFR 19D/T790M/C797S mutant (unknown origin) by ELISA.
The test system of experiment [5] is BaF3. Briefly: Cell cycle arrest in mouse BAF3 cells harboring EGFR 19D/T790M/C797S mutant assessed as accumulation at G2 phase at 1 uM measured after 24 hrs by flow cytometry analysis (reference value: 7.94 %). The class given is functional.
The test system of experiment [6] is BaF3. Briefly: Cell cycle arrest in mouse BAF3 cells harboring EGFR 19D/T790M/C797S mutant assessed as accumulation at G1 phase at 1 uM measured after 24 hrs by flow cytometry analysis (reference value: 39.62 %). It counts as functional. On the technique in general: Flow cytometry measures light scatter and fluorescence of single cells or particles in a stream.

A further experiment deals with A-431. Briefly: Antiproliferative activity against human A431 cells overexpressing EGFR assessed as reduction in cell viability by CCK8 assay. The class given is functional, cell-based.
A further experiment has as its system NCI-H1975. Briefly: Antiproliferative activity against human NCI-H1975 cells harboring EGFR L858R/T790M mutant assessed as reduction in cell viability by CCK8 assay. It counts as functional, cell-based.
The subject of experiment [7] is BaF3. Briefly: Antiproliferative activity against mouse BAF3 cells harboring EGFR 19D/T790M/C797S mutant assessed as reduction in cell viability by CCK8 assay. It counts as functional, cell-based.
The test system of experiment [8] is BaF3. Briefly: Cell cycle arrest in mouse BAF3 cells harboring EGFR 19D/T790M/C797S mutant assessed as accumulation at S phase at 1 uM measured after 24 hrs by flow cytometry analysis (reference value: 52.43 %). It counts as functional.
Experiment [9] deals with Epidermal growth factor receptor (Homo sapiens), P00533 [UNDEFINED MUTATION]. Briefly: Inhibition of EGFR 19D/T790M/C797S mutant (unknown origin) expressed in mouse BAF3 cells assessed as reduction in EGF-stimulated Akt phosphorylation at 5 to 100 uM pretreated for 3 hrs followed by EGF stimulation by Western blot analysis. The class given is cell-based. On the technique in general: Immunoblotting shows a protein as a band on a membrane.

Experiment [10] is described as follows: Selectivity index, ratio of IC50 for human A431 cells overexpressing EGFR assessed as reduction in cell viability by CCK8 assay to IC50 for human NCI-H1975 cells harboring EGFR […]/T790M assessed as reduction in cell viability by CCK8 assay. It counts as functional.
The subject of experiment [11] is BaF3. Briefly: Induction of apoptosis in mouse BAF3 cells harboring EGFR 19D/T790M/C797S mutant assessed as early apoptotic cells at 1 uM measured after 24 hrs by annexinV-FITC/propidium iodide staining based flow cytometry analysis (reference value: 15.09 %). The class given is functional.
Experiment [12] has as its system BaF3. Briefly: Induction of apoptosis in mouse BAF3 cells harboring EGFR 19D/T790M/C797S mutant assessed as necrotic cells at 1 uM measured after 24 hrs by annexinV-FITC/propidium iodide staining based flow cytometry analysis (reference value: 0.13 %). It counts as functional.
Experiment [13] deals with BaF3. Briefly: Induction of apoptosis in mouse BAF3 cells harboring EGFR 19D/T790M/C797S mutant assessed as live cells at 50 uM measured after 24 hrs by annexinV-FITC/propidium iodide staining based flow cytometry analysis (reference value: 82.74 %). The class given is functional.
For experiment [14], the system named is BaF3. Briefly: Induction of apoptosis in mouse BAF3 cells harboring EGFR 19D/T790M/C797S mutant assessed as live cells at 1 uM measured after 24 hrs by annexinV-FITC/propidium iodide staining based flow cytometry analysis (reference value: 82.74 %). The class given is functional.
Experiment [15] deals with BaF3. Briefly: Induction of apoptosis in mouse BAF3 cells harboring EGFR 19D/T790M/C797S mutant assessed as late apoptotic cells at 10 uM measured after 24 hrs by annexinV-FITC/propidium iodide staining based flow cytometry analysis (reference value: 2.03 %). The class given is functional.
The test system of experiment [16] is Epidermal growth factor receptor (Homo sapiens), P00533 [UNDEFINED MUTATION]. Briefly: Inhibition of EGFR 19D/T790M/C797S mutant (unknown origin) expressed in mouse BAF3 cells assessed as reduction in EGF-stimulated EGFR phosphorylation pretreated for 3 hrs followed by EGF stimulation by Western blot analysis. The class given is cell-based.
Experiment [17] relates to BaF3. Briefly: Induction of apoptosis in mouse BAF3 cells harboring EGFR 19D/T790M/C797S mutant assessed as necrotic cells at 50 uM measured after 24 hrs by annexinV-FITC/propidium iodide staining based flow cytometry analysis (reference value: 0.13 %). It counts as functional.
Experiment [18] concerns BaF3. Briefly: Induction of apoptosis in mouse BAF3 cells harboring EGFR 19D/T790M/C797S mutant assessed as early apoptotic cells at 50 uM measured after 24 hrs by annexinV-FITC/propidium iodide staining based flow cytometry analysis (reference value: 15.09 %). The class given is functional.
Experiment [19] has as its system BaF3. Briefly: Cell cycle arrest in mouse BAF3 cells harboring EGFR 19D/T790M/C797S mutant assessed as accumulation at G2 phase at 20 uM measured after 24 hrs by flow cytometry analysis (reference value: 7.94 %). The class given is functional.
For experiment [20], the system named is BaF3. Briefly: Induction of apoptosis in mouse BAF3 cells harboring EGFR 19D/T790M/C797S mutant assessed as necrotic cells at 10 uM measured after 24 hrs by annexinV-FITC/propidium iodide staining based flow cytometry analysis (reference value: 0.13 %). It counts as functional.
Experiment [21] is described as follows: Selectivity index, ratio of IC50 for human A431 cells overexpressing EGFR assessed as reduction in cell viability by CCK8 assay to IC50 for mouse BAF3 cells harboring EGFR 19D/T790M/C797S assessed as reduction in cell viability by CCK8 assay. It counts as functional.
Experiment [22] relates to BaF3. Briefly: Induction of apoptosis in mouse BAF3 cells harboring EGFR 19D/T790M/C797S mutant measured after 24 hrs by annexinV-FITC/propidium iodide staining based flow cytometry analysis. It counts as functional, cell-based.
Experiment [23] concerns BaF3. Briefly: Cell cycle arrest in mouse BAF3 cells harboring EGFR 19D/T790M/C797S mutant assessed as accumulation at G2 phase at 10 uM measured after 24 hrs by flow cytometry analysis (reference value: 7.94 %). It counts as functional.
For experiment [24], the system named is BaF3. Briefly: Induction of apoptosis in mouse BAF3 cells harboring EGFR 19D/T790M/C797S mutant assessed as live cells at 10 uM measured after 24 hrs by annexinV-FITC/propidium iodide staining based flow cytometry analysis (reference value: 82.74 %). The class given is functional.
Experiment [25] has as its system BaF3. Briefly: Cell cycle arrest in mouse BAF3 cells harboring EGFR 19D/T790M/C797S mutant assessed as accumulation at S phase at 20 uM measured after 24 hrs by flow cytometry analysis (reference value: 52.43 %). It counts as functional.
Experiment [26] concerns BaF3. Briefly: Induction of apoptosis in mouse BAF3 cells harboring EGFR 19D/T790M/C797S mutant assessed as late apoptotic cells at 1 uM measured after 24 hrs by annexinV-FITC/propidium iodide staining based flow cytometry analysis (reference value: 2.03 %). The class given is functional.
Experiment [27] deals with BaF3. Briefly: Cell cycle arrest in mouse BAF3 cells harboring EGFR 19D/T790M/C797S mutant assessed as accumulation at G1 phase measured after 24 hrs by flow cytometry analysis. The class given is functional, cell-based.
Experiment [28] deals with BaF3. Briefly: Cell cycle arrest in mouse BAF3 cells harboring EGFR 19D/T790M/C797S mutant assessed as accumulation at G1 phase at 10 uM measured after 24 hrs by flow cytometry analysis (reference value: 39.62 %). The class given is functional.
The subject of experiment [29] is BaF3. Briefly: Induction of apoptosis in mouse BAF3 cells harboring EGFR 19D/T790M/C797S mutant assessed as late apoptotic cells at 50 uM measured after 24 hrs by annexinV-FITC/propidium iodide staining based flow cytometry analysis (reference value: 2.03 %). The class given is functional.
Experiment [30] relates to BaF3. Briefly: Cell cycle arrest in mouse BAF3 cells harboring EGFR 19D/T790M/C797S mutant assessed as accumulation at G1 phase at 20 uM measured after 24 hrs by flow cytometry analysis (reference value: 39.62 %). It counts as functional.
Experiment [31] relates to BaF3. Briefly: Cell cycle arrest in mouse BAF3 cells harboring EGFR 19D/T790M/C797S mutant assessed as accumulation at S phase at 10 uM measured after 24 hrs by flow cytometry analysis (reference value: 52.43 %). The class given is functional.
Experiment [32] deals with Epidermal growth factor receptor (Homo sapiens), P00533 [UNDEFINED MUTATION]. Briefly: Inhibition of EGFR 19D/T790M/C797S mutant (unknown origin) expressed in mouse BAF3 cells assessed as reduction in EGF-stimulated ERK phosphorylation pretreated for 3 hrs followed by EGF stimulation by Western blot analysis. It counts as cell-based.
The test system of experiment [33] is BaF3. Briefly: Induction of apoptosis in mouse BAF3 cells harboring EGFR 19D/T790M/C797S mutant assessed as early apoptotic cells at 10 uM measured after 24 hrs by annexinV-FITC/propidium iodide staining based flow cytometry analysis (reference value: 15.09 %). The class given is functional.

pIC50: −log10 of the molar value. The source made the active and inactive calls. The rule behind the calls is not given here.

Epidermal growth factor receptor (Homo sapiens, UniProt P00533, C797S/L858R/T790M), sequence (P00533 25-1210 T790M/C797S/L858R limits assumed): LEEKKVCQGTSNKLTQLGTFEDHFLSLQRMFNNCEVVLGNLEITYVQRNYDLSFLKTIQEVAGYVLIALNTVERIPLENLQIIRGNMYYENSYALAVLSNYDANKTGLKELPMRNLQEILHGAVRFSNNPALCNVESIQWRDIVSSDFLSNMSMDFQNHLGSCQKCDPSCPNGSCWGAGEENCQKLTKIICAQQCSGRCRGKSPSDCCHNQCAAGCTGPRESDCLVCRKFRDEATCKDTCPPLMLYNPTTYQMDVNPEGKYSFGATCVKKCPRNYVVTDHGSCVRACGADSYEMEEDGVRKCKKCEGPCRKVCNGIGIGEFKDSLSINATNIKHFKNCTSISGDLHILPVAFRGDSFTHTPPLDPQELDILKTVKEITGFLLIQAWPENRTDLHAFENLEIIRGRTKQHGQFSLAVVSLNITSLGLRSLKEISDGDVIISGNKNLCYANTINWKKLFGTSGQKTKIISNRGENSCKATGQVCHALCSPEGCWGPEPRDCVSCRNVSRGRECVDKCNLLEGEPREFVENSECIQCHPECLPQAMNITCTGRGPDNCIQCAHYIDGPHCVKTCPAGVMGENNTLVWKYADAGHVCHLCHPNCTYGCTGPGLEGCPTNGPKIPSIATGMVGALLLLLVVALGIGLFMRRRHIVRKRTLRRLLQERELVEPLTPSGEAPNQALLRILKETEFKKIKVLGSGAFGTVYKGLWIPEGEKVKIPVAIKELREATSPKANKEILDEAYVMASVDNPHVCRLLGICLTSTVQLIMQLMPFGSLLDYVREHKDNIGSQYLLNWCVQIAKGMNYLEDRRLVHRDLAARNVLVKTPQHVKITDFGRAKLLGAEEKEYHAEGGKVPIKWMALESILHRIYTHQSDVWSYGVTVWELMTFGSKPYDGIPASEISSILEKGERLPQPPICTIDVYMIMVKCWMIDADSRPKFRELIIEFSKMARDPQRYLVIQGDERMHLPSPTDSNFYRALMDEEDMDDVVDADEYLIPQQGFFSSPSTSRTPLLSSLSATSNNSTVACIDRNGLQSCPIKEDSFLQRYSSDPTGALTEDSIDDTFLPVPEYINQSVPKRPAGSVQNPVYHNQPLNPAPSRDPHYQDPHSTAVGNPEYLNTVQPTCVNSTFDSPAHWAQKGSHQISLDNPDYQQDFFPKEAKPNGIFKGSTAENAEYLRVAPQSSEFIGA
Epidermal growth factor receptor (Homo sapiens, UniProt P00533, L858R/T790M), sequence (P00533 25-1210 T790M/L858R limits assumed): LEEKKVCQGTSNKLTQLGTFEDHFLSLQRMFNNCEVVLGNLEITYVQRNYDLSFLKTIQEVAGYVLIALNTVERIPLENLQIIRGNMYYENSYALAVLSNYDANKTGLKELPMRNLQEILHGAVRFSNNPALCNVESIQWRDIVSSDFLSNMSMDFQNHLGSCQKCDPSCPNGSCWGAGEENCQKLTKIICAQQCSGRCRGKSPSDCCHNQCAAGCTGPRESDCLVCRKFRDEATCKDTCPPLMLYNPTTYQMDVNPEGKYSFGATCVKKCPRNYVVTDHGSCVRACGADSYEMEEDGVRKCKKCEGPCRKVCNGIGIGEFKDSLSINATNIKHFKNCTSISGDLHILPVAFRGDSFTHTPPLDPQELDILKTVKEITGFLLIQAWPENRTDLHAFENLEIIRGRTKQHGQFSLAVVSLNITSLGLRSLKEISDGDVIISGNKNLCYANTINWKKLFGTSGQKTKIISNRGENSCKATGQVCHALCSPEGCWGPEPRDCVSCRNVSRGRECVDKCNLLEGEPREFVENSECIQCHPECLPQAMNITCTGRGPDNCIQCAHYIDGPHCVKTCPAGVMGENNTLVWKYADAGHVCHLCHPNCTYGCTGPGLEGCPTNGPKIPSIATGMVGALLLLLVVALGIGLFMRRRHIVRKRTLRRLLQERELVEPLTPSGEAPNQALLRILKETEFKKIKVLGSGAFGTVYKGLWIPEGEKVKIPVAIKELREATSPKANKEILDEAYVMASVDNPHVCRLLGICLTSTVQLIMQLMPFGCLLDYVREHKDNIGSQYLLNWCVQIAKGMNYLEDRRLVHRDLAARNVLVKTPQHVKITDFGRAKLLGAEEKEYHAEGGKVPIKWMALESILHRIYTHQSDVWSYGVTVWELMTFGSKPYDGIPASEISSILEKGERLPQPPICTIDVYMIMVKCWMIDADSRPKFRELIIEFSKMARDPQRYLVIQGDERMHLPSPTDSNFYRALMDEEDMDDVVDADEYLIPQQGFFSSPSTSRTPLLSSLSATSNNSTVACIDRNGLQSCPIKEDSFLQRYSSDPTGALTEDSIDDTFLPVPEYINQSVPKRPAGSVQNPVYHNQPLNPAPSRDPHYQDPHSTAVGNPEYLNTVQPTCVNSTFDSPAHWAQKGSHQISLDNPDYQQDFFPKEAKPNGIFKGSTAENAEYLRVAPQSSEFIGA
Epidermal growth factor receptor (Homo sapiens, UniProt P00533), sequence (P00533 whole entry): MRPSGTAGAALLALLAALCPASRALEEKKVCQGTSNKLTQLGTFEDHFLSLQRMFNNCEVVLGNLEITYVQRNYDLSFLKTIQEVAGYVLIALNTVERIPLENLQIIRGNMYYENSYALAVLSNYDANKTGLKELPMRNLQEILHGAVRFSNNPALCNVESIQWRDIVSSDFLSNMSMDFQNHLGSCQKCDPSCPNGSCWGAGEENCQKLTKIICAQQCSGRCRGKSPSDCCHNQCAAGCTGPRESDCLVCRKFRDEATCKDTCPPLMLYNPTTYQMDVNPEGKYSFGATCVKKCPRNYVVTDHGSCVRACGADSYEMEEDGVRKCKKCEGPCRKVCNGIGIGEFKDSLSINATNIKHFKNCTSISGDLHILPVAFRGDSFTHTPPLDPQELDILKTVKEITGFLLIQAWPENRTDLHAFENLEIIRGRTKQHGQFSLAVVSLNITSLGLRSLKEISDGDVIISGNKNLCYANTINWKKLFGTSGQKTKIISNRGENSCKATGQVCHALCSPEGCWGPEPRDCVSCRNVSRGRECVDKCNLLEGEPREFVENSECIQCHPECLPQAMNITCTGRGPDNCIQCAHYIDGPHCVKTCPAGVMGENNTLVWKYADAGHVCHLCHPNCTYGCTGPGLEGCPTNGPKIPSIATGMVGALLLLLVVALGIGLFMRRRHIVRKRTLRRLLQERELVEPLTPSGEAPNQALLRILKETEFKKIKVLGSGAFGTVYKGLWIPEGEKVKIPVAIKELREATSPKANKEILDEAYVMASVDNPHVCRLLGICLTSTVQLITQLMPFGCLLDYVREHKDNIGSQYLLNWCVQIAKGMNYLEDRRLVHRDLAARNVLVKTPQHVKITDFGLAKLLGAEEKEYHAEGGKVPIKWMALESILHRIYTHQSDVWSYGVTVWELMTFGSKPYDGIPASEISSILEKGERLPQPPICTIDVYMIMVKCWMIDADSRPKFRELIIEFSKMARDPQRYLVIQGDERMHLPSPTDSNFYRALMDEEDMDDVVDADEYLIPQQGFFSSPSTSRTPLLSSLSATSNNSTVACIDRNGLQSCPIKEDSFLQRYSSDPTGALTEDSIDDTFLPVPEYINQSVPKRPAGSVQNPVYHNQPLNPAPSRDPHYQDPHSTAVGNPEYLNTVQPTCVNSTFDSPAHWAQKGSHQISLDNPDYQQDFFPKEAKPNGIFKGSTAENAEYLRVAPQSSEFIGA
Epidermal growth factor receptor (Homo sapiens), P00533 [UNDEFINED MUTATION], sequence (P00533 whole entry, looked up, stated change not applied): as the sequence (P00533 whole entry) above

For orientation: pIC50 means the IC50 on a negative log10 scale, so that one unit is a factor of ten. Take `C=CC(=O)Nc1cc(Nc2nccc(-c3cn(CCCO)c4ccccc34)n2)c(OC)cc1F`: the pIC50 in [1] is 6.55; in experiment [2], below 6.00; in experiment [3], 8.66; in experiment [4], 7.75.
Regarding `C=CC(=O)Nc1cc(Nc2nccc(-c3cn(C)c4ccccc34)n2)c(OC)cc1N(C)CCN(C)C` [OSIMERTINIB], the Activity in the experiment with BaF3 [5] stood at 8.93%; in the experiment with BaF3 [6], 45.49%; in the experiment on BaF3 [8], 45.58%. Moreover, the pIC50 is […] in the experiment with A-431, […] in the experiment on NCI-H1975 and 5.26 in the experiment with BaF3 [7].
In the case of `CCC(=O)Nc1cc(Nc2nccc(-c3c[nH]c4c(CCO)cccc34)n2)c(OC)cc1F`, the pIC50 in experiment [1] is below 6.00; in [2] it was below 6.00; in experiment [3], 6.68; in experiment [4], 6.18.
Consider `CCC(=O)Nc1cc(Nc2nccc(-c3cn(CCCO)c4ccc(F)cc34)n2)c(OC)cc1F`, for which the pIC50 in experiment [1] is below 6.00; in experiment [2], 6.48; in experiment [3] it was 6.85; in [4], 7.39.
The corresponding values for `CCC(=O)Nc1cc(Nc2nccc(-c3cn(CCO)c4ccccc34)n2)c(OC)cc1F` are below 6.00, below 6.00, 6.77 and 7.09.
On the same counts, the results for `CCC(=O)Nc1cc(Nc2nccc(-c3cn(CCCO)c4ccccc34)n2)c(OC)cc1F` are below 6.00, 6.37, 6.90 and 7.14.
The corresponding values for `CCC(=O)Nc1cc(Nc2nccc(-c3cn(CCCO)c4ccccc34)n2)c(OC)cc1N(C)CCN(C)C` are below 6.00, 6.19, 6.77 and 7.14.
Consider `COc1cc(N(C)CCN(C)C)ccc1Nc1nccc(-c2cn(CCCO)c3ccccc23)n1`, for which the inhibition result in experiment [9] is “Active”. Besides, the Activity with BaF3 [5] is recorded as 10.52%; with BaF3 [11] it was 17%; with BaF3 [12] it was 0.19%; in the experiment on BaF3 [13], 1.76%; in the experiment with BaF3 [14] it was 80.07%; in the experiment with BaF3 [15], 14.53%. Also, the Activity was 0.42% in the experiment on BaF3 [17]; 74.01% with BaF3 [18]; 48% in the experiment with BaF3 [6]; 10.02% in the experiment on BaF3 [19]; 0.4% in the experiment on BaF3 [20]; “Dose-dependent effect” with BaF3 [22]. Moreover, the Activity in the experiment with BaF3 [23] is 10.25%; in the experiment with BaF3 [24], 60.89%; with BaF3 [25] it was 26.61%; with BaF3 [8] it was 40.51%; with BaF3 [26], 2.74%; in the experiment on BaF3 [27], “Dose-dependent effect”. Also, the Activity was 51.94% with BaF3 [28]; 23.81% in the experiment with BaF3 [29]; 53.37% with BaF3 [30]; 37.81% in the experiment with BaF3 [31]; 24.18% in the experiment on BaF3 [33]. The “Ratio IC50” value came out at 1.27 in [10] and 2.41 in [21]. Also, the inhibition entry in experiment [16] and in experiment [32] was “Dose-dependent effect” in each case. The pIC50 was 4.69 with A-431; 4.79 with NCI-H1975; below 6.00 in experiment [1]; 5.07 with BaF3 [7]; 6.66 in [2]; 6.81 in experiment [3]. For the same compound, in experiment [4], the pIC50 was 7.82.
